In patent US10357576B2, “18F-labelled folate/antifolate analogues” (MERCK & CIE, priority 2012, dated 2019):

What was measured:
[1] = tested on: KB cells; experiment: In vitro cell uptake and internalization studies; format: cell-based, human; details: two hours of incubation, 37° C.
Procedure: Cell Culture: KB cells (human cervical carcinoma cell line, HeLa subclone; ACC-136) were purchased from the German Collection of Microorganisms and Cell Cultures (DSMZ, Braunschweig, Germany). The cells were cultured as monolayers at 37° C. in a humidified atmosphere containing 5% CO2. […] FFRPMI medium was supplemented with 10% heat-inactivated fetal calf serum (FCS, as the only source of folate), L-glutamine and antibiotics (penicillin/streptomycin/fungizone). Routine culture treatment was performed twice a week with EDTA (2.5 mmol/l) in PBS.
KB cells were seeded in 12-well plates to grow over night (˜700,000 cells in 2 ml FFRPMI medium/well). [^18F]-3′-aza-2′-fluorofolic acid ([…], 170 kBq) was added to each well. […] After incubation for 1 h or 2 h at 37° C. the cells were washed three times with PBS to determine total cell uptake of 3′-aza-2′-[^18F]fluorofolic acid. […] The cell suspensions were transferred to 4 ml tubes and the samples were counted in a −counter. After homogenization by vortex, the concentration of proteins was determined for each sample by a Micro BCA Protein Assay kit in order to standardize measured radioactivity to the average content of 0.3 mg protein in a single well. […]

[2] = Human plasma stability; format: in vitro ADME; details: 37° C., 4 h, radio-UPLC
Procedure: (§1) Radio-UPLC: For stability studies, an ultra-performance liquid chromatography (UPLC™, Waters) system, equipped with an Acquity UPLC BEH C18 column (1.7 μm, 2.1×50 mm, Waters) and a coincidence detector (FlowStar LB513, Berthold) was used with following solvent system: eluent A was a NaH2PO4/Na2HPO4 buffer (0.05 M, pH 7.4) and eluent B was acetonitrile. A gradient from 0-4.0 min 100%-40% A, at a flow rate of 0.6 ml/min was used.
The radiotracer was tested with regard to its stability in human blood plasma over a period of 4 hours at 37° C. The formulated product (200 μL) was diluted with sodium phosphate buffer (100 μl) and an aliquot (60 μl, 15 MBq) was added to human plasma (500 μL), pre-incubated at 37° C. The mixture was shaken on a Thermomixer compact (Eppendorf) at 37° C. and 500 rpm. After several time points (0, 30, 60, 120, 150 and 240 min) aliquots were taken after tracer addition. Each aliquot (70 μl) was added to ice-cold MeOH (150 μl) to precipitate the proteins. To separate the supernatant from the precipitate, the suspension was centrifuged for 10 min at 13400 rpm (Eppendorf MiniSpin) at room temperature. The supernatant was passed through a microfilter (Sartorius Stedim Biotech GmbH, Minisart RC 25, 0.45 μm) and was analyzed on the radio-UPLC system.

[3] = Stability experiments using liver microsomes (mouse); format: in vitro ADME; details: 37° C., 1 h, NADPH regenerating system, radio-UPLC
Source text: General: Reagents and solvents were purchased from Sigma-Aldrich Chemie GmbH, Acros Organics or VWR International AG if nothing else is mentioned. All chemicals were used as supplied. Human and mouse (female CD-1) microsomes and the NADPH regenerating systems were purchased from BD biosciences.
as §1
To a mixture of KH2PO4/K2HPO4 buffer (pH 7.4, 0.5 M, 200 μl), NADPH regenerating system A (50 μl), NADPH regenerating system B (10 μl), an aliquot of [^18F]-3′-aza-2′-fluorofolic acid (38 μl, approx. 15 MBq) was added and filled up with water (677 μl) to a volume of 975 μl and preincubated at 37° C. Then, mouse or human liver microsomes (20 mg/ml, 25 μl) were added and incubated at 37° C. After several time points (0, 20, 40 and 60 min) aliquots (100 μl) were drawn and the enzymatical reaction was stopped by purring the solution into ice-cold methanol (200 μl). […] Every time point was performed as a triplicate and analyzed on a radio-UPLC system. […]

[4] = Ex vivo metabolite studies in KB tumor bearing mice; details: i.v., radio-UPLC
Procedure: as §1
For the determination of radiometabolites in vivo, 3′-aza-2′-[^18F]fluorofolic acid (60-70 MBq) was intravenously injected into KB tumor bearing mice (n=2). After 5 min, blood samples were drawn from the opposite vein and the animals were sacrificed 30 min after radiotracer injection. The whole blood, liver, tumor and urine were collected. Blood samples were centrifuged at 5000 g for 5 min at 4° C. The proteins of the plasma samples were precipitated by addition of the same volume of ice-cold methanol followed by centrifugation. The supernatants of the plasma and the urine sample were diluted with PBS buffer and analyzed by radio-UPLC. Liver and tumor tissue were homogenized in an equal volume of PBS using a PT 1200 C Polytron (Kinematica AG), respectively. After addition of the same volume of ice-cold MeOH, the mixture was centrifuged at 5000 g for 5 min and 4° C. The supernatant was cleared from remaining proteins by addition of ice-cold methanol, followed by centrifugation. The resulting supernatant fractions were diluted with PBS buffer and analyzed by radio-UPLC.

[5] = tested on: KB tumor xenografts; experiment: PET imaging studies in KB tumor-bearing mice; format: in vivo
Procedure: PET experiments were performed with an eXplore VISTA PET/CT tomograph (GE). Tumor bearing mice were injected with 10-18 MBq of 3′-aza-2′-[^18F]fluorofolic acid (100-150 μl per injection) via lateral tail vein. […] Animals were anesthetized with isoflurane in an air/oxygen mixture. The PET scans were acquired from 120-150 min p.i. After acquisition, PET data were reconstructed in user-defined time frames. The fused datasets of PET and CT were analyzed with PMOD (version 3.2) software.
Dynamic PET scans of mice 1.5-90 min p.i. of 3′-aza-2′-[^18F]fluorofolic acid and at 60-150 min p.i. were performed. Static PET scans of [^18F]-2′3′-aza-folic acid were typically performed with a scan time from 120-150 min p.i. […] The uptake in other non-target organs was negligible, the only exceptions being the liver, kidneys and salivary glands.

[6] = PET, pemetrexed 400 μg 60 min prior to the radiotracer

Stability in human blood plasma [2]: completely stable
Stability in mouse liver microsomes [3]: completely stable
Radiometabolites in liver ([4]; 30 min p.i.): signs of metabolism
Radiometabolites in tumor ([4]; 30 min p.i.): no detectable amounts of metabolites
Radiometabolites in urine ([4]; 30 min p.i.): no detectable amounts of metabolites
Radiometabolites in plasma ([4]; plasma sample 5 min p.i.): no detectable amounts of metabolites
Radiometabolites in plasma ([4]; plasma sample 30 min p.i.): no detectable amounts of metabolites
Uptake in the tumor tissue and in the kidneys with coinjected folic acid ([5]; PET 120-150 min p.i., excess folic acid 100 μg): reduced uptake
Accumulation in the liver after preinjection of pemetrexed [5, 6]: very strong reduction
Kidney uptake after preinjection of pemetrexed [5, 6]: reduced kidney uptake
Tumor uptake after preinjection of pemetrexed [5, 6]: high tumor uptake
Specific uptake in KB tumor xenografts ([5]; quoted with static baseline PET scan 120-150 min p.i.): 12.6±1.8 % ID/g
Uptake in other non-target organs (except liver, kidneys and salivary glands) ([5]; static baseline PET scan 120-150 min p.i.): negligible
Compound: Nc1nc2ncc(CNc3ccc(C(=O)N[C@@H](CCC(=O)O)C(=O)O)c([18F])n3)nc2c(=O)[nH]1 [3′-aza-2′-[^18F]fluorofolic acid]
Total cell uptake [1]: about 78.17%
Internalized fraction ([1]; stripping buffer pH 3): 18.56%
